# Assay results: US20250163038A1, “CBL-B MODULATORS AND USES THEREOF” (Nimbus Clio, Inc., priority 2021, published 2025)
# Like-named read-outs stand apart in the source and are kept apart here.
# What was measured:
# [1] = target: Recombinant human Cbl-b (aa 36-427) (Homo sapiens, UniProt Q13191); experiment: Cbl-b Biochemical Assay (TR-FRET); settings: read-out: TR-FRET hCbl-b IC50
# [2] = test system: Jurkat (clone E6-1) cells with NFAT luciferase reporter; experiment: Jurkat reporter assay (NFAT Luciferase); format: cell-based; settings: Homo sapiens
# [3] = target: T1, Recombinant human c-Cbl (aa 47-435) (Homo sapiens, UniProt P22681); experiment: c-Cbl Biochemical Assay (TR-FRET); settings: hc-Cbl Biochemical Assay (TR-FRET); read-out: TR-FRET hcCbl IC50
# T1 sequence (P22681 47-435): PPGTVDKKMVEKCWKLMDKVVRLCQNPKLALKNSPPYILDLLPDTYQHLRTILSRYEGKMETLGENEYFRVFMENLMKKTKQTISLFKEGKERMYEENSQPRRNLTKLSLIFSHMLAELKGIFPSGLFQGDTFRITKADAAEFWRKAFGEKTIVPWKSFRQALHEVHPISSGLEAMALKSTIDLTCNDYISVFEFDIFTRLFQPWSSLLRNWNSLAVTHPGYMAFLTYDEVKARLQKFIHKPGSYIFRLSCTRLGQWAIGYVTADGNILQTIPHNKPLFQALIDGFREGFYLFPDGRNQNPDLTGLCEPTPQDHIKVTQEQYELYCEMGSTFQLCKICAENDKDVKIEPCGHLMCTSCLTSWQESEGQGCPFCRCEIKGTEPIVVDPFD
# [4] = Jurkat NFAT luciferase reporter cells, anti-CD3 stimulation, 6 hr, read-out: Jurkat NFAT EC50
# Chain of Recombinant human Cbl-b (aa 36-427) (Q13191 36-427): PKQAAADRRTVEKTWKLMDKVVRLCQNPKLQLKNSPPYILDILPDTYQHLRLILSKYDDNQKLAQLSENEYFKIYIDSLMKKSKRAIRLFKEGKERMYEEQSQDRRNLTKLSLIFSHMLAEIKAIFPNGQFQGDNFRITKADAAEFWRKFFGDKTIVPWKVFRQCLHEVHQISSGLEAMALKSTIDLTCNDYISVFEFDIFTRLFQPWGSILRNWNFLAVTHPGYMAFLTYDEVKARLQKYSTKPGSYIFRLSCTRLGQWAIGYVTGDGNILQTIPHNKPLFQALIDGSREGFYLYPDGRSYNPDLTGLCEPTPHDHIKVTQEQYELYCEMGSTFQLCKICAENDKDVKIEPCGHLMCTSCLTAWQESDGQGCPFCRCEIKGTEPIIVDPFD
IC50 [1],"EC50 [2, 4]",IC50 [3],Structure (SMILES),"EC50 ([2]; Jurkat, 6 h, read-out: Jurkat NFAT EC50 (μM))"
< 200 nM,< 0.2 µM,< 200 nM,"Cn1cnnc1-c1cc(F)ccc1-c1cccc(-c2nc3cc(CNCC4(O)CCCC4)cc(C(F)(F)F)c3[nH]2)c1 [CJ-1, 1-((((2-(4′-Fluoro-2′-(4-methyl-4H-1,2,4-triazol-3-yl)-[1,1′-biphenyl]-3-yl)-7-(trifluoromethyl)-1H-benzo[d]imidazol-5-yl)methyl)amino)methyl)cyclopentan-1-ol]",
< 200 nM,1 to 10 µM,200 to 1000 nM,"CNCc1cc2nc(-c3cc(-c4ccc(F)cc4-c4nncn4C)cc(C4CC4)n3)oc2c(F)c1F [AHA-2, [(2-{6-cyclopropyl-4-[4-fluoro-2-(4-methyl-1,2,4-triazol-3-yl)phenyl]pyridin-2-yl}-6,7-difluoro-1,3-benzoxazol-5-yl)methyl](methyl)amine]",
200 to 1000 nM,1 to 10 µM,10000 to 50000 nM,"CCNc1cc(-c2ccccc2-c2nncn2C)cc(-c2nc3cc(CN4CCC5(CC5)C4)cc(C(F)(F)F)c3[nH]2)n1 [AAG-4, 6-(6-{5-Azaspiro[2.4]heptan-5-ylmethyl}-4-(trifluoromethyl)-3H-1,3-benzodiazol-2-yl)-N-ethyl-4-[2-(4-methyl-1,2,4-triazol-3-yl)phenyl]pyridin-2-amine]",
< 200 nM,< 0.2 µM,< 200 nM,"Cc1cc(CNCC2(O)CCC2)cc2nc(-c3cc(-c4ccc(F)cc4-c4nncn4C)cc(C4CC4)n3)oc12 [AEV-1, 1-({[(2-{6-Cyclopropyl-4-[4-fluoro-2-(4-methyl-1,2,4-triazol-3-yl)phenyl]pyridin-2-yl}-7-methyl-1,3-benzoxazol-5-yl)methyl]amino}methyl)cyclobutan-1-ol]",
< 200 nM,0.2 to 1 µM,< 200 nM,"COc1cc(CNCC2CC2)cc2nc(-c3cccc(-c4ccc(F)cc4-c4nncn4C)c3)oc12 [FU-1, 1-Cyclopropyl-N-((2-(4′-fluoro-2′-(4-methyl-4H-1,2,4-triazol-3-yl)-[1,1′-biphenyl]-3-yl)-7-methoxybenzo[d]oxazol-5-yl)methyl)methanamine]",
< 200 nM,0.2 to 1 µM,1000 to 10000 nM,"CC(c1cc(C(F)(F)F)c2oc(-c3cccc(C4(Cc5nncn5C)COC4)c3)nc2c1)N1CCC2(CC2)C1 (stereo not drawn) [AAB-9, 5-(1-{5-Azaspiro[2.4]heptan-5-yl}ethyl)-2-(3-{3-[(4-methyl-1,2,4-triazol-3-yl)methyl]oxetan-3-yl}phenyl)-7-(trifluoromethyl)-1,3-benzoxazole]",
< 200 nM,< 0.2 µM,< 200 nM,"Cn1cnnc1-c1cc(F)ccc1-c1cccc(-c2nc3cc(CNC[C@H](O)C(F)(F)F)cc(C(F)(F)F)c3o2)c1 [DM-2, (S)-1,1,1-Trifluoro-3-(((2-(4′-fluoro-2′-(4-methyl-4H-1,2,4-triazol-3-yl)-[1,1′-biphenyl]-3-yl)-7-(trifluoromethyl)benzo[d]oxazol-5-yl)methyl)amino)propan-2-ol]",
< 200 nM,0.2 to 1 µM,200 to 1000 nM,"Cn1cnnc1-c1cc(F)ccc1-c1cccc(-c2nc3cc(CNCC4(C#N)CCOCC4)cc(C(F)(F)F)c3[nH]2)c1 [CT-2, 4-((((2-(4′-Fluoro-2′-(4-methyl-4H-1,2,4-triazol-3-yl)-[1,1′-biphenyl]-3-yl)-7-(trifluoromethyl)-1H-benzo[d]imidazol-5-yl)methyl)amino)methyl)tetrahydro-2H-pyran-4-carbonitrile]",
< 200 nM,0.2 to 1 µM,200 to 1000 nM,"Cc1cc(CN(C)CC2(O)CCC2)cc2nc(-c3cc(-c4ccc(F)cc4-c4nncn4C)cc(C4CC4)n3)oc12 [AFH-2, 1-({[(2-{6-Cyclopropyl-4-[4-fluoro-2-(4-methyl-1,2,4-triazol-3-yl)phenyl]pyridin-2-yl}-7-methyl-1,3-benzoxazol-5-yl)methyl](methyl)amino}methyl)cyclobutan-1-ol]",
< 200 nM,< 0.2 µM,< 200 nM,"Cn1cnnc1-c1cc(F)ccc1-c1cccc(-c2nc3cc(CN4CO[C@H]5CCC[C@H]54)cc(C(F)(F)F)c3o2)c1 [EH-1, 2-(4′-Fluoro-2′-(4-methyl-4H-1,2,4-triazol-3-yl)-[1,1′-biphenyl]-3-yl)-5-(((3aR,6aS)-tetrahydro-2H-cyclopenta[d]oxazol-3(3aH)-yl)methyl)-7-(trifluoromethyl)benzo[d]oxazole]",
< 200 nM,0.2 to 1 µM,1000 to 10000 nM,"Cn1cnnc1-c1cc(F)ccc1-c1cc(C(=O)Nc2cc(CN3CCC4(CC4)C3)cc(C(F)(F)F)c2N)nc(C2CC2)c1 [ABA-1, N-(5-((5-Azaspiro[2.4]heptan-5-yl)methyl)-2-amino-3-(trifluoromethyl)phenyl)-6-cyclopropyl-4-(4-fluoro-2-(4-methyl-4H-1,2,4-triazol-3-yl)phenyl)picolinamide]",
< 200 nM,0.2 to 1 µM,1000 to 10000 nM,"Cn1cnnc1-c1cc(F)ccc1-c1cccc(-c2nc3cc(CNCC4(O)COC4)cc(C(F)(F)F)c3o2)c1 [AC-2, 3-((((2-(4′-Fluoro-2′-(4-methyl-4H-1,2,4-triazol-3-yl)-[1,1′-biphenyl]-3-yl)-7-(trifluoromethyl)benzo[d]oxazol-5-yl)methyl)amino)methyl)oxetan-3-ol]",
< 200 nM,0.2 to 1 µM,< 200 nM,"Cn1cnnc1-c1cc(F)ccc1-c1cccc(-c2nc3cc(CNC[C@@]4(C)CCO4)cc(C(F)(F)F)c3o2)c1 [HL-2, (R)-1-(2-(4′-Fluoro-2′-(4-methyl-4H-1,2,4-triazol-3-yl)-[1,1′-biphenyl]-3-yl)-7-(trifluoromethyl)benzo[d]oxazol-5-yl)-N-((2-methyloxetan-2-yl)methyl)methanamine]",
< 200 nM,0.2 to 1 µM,1000 to 10000 nM,"C[C@H](O)CNCc1cc(C(F)(F)F)c2oc(-c3cccc(-c4ccc(F)cc4-c4nncn4C)c3)nc2c1 [AM-2, (S)-1-(((2-(4′-Fluoro-2′-(4-methyl-4H-1,2,4-triazol-3-yl)-[1,1′-biphenyl]-3-yl)-7-(trifluoromethyl)benzo[d]oxazol-5-yl)methyl)amino)propan-2-ol]",

Structure (SMILES),IC50 [1],"EC50 [2, 4]",IC50 [3],"EC50 ([2]; Jurkat, 6 h, read-out: Jurkat NFAT EC50 (μM))"
"CON(C)C(=O)c1cc(C(F)(F)F)c2oc(-c3cccc(-c4ccc(F)cc4-c4nncn4C)c3)nc2c1 [DJ-2, 2-(4′-Fluoro-2′-(4-methyl-4H-1,2,4-triazol-3-yl)-[1,1′-biphenyl]-3-yl)-N-methoxy-N-methyl-7-(trifluoromethyl)benzo[d]oxazole-5-carboxamide]",< 200 nM,1 to 10 µM,200 to 1000 nM,
"Cn1cnnc1-c1cc(F)ccc1-c1cccc(-c2nc3cc(CN[C@@H]4CCC[C@@H]4O)cc(Cl)c3o2)c1 [HG-7, (1S,2R)-2-(((7-Chloro-2-(4′-fluoro-2′-(4-methyl-4H-1,2,4-triazol-3-yl)-[1,1′-biphenyl]-3-yl)benzo[d]oxazol-5-yl)methyl)amino)cyclopentan-1-ol]",< 200 nM,,< 200 nM,< 0.2 µM
"Cn1cnnc1-c1cc(F)ccc1-c1cccc(-c2nc3cc(CNCC(=O)N4CCC4)cc(C(F)(F)F)c3o2)c1 [HE-4, 1-(Azetidin-1-yl)-2-(((2-(4′-fluoro-2′-(4-methyl-4H-1,2,4-triazol-3-yl)-[1,1′-biphenyl]-3-yl)-7-(trifluoromethyl)benzo[d]oxazol-5-yl)methyl)amino)ethan-1-one]",< 200 nM,1 to 10 µM,< 200 nM,
